Test results: patent publication US5094944A, “Flourescent aquatic bioassay and procedure” (priority 1990, dated 1992)
Converted amounts (≈) assume the structure as drawn.

What was measured:
Daphnia magna [1] = test: whole plant or invertebrate; assay type: in vivo; conditions: for EC50: Daphnia magna, read-out: Mean EC50
Experimental: Determination of the EC50 Value in Test Tubes
Using Daphnia magna as a test species a series of test concentrations of the standard reference toxicant CuSO4 was established in triplicate. Each replicate consisted of 10 ml of test media in a 15 ml glass test tube. Five organisms were placed in each tube. The tubes were then maintained for a period of one hour at ambient room environmental conditions. At the end of one hour 0.4 mg of the substrate 4-Methylumbelliferyl b-D-galactoside (MUF) was added. Fifteen minutes after the addition of the MUF the test tubes were taken into a dark room. […] A record was made of the number of strongly fluorescing Daphnia magna bodies. […] These organisms were then compared to each of the other triplicate concentrations.
The data was then analyzed statistically by conventional methods (Methods for Measuring the Acute Toxicity of Effluents to Freshwater and Marine Organisms (Third Edition) EPA/600/4-85/013).
11 standard reference toxicants were then analyzed by the above method. […]

Daphnia magna [2] = test: Daphnia magna fluorescence bioassay in a multiwell plate (Example 1); assay type: in vivo; parameters: key to fluorescence of Daphnia magna: fluorescing; nonfluorescing; conditions: for fluorescence of Daphnia magna / survival (all alive): replicates #1, #2, #3
Excerpt: Determination of an EC50 Value in a Multiwell Plate
The objective of this example was to determine the EC50 value and its confidence limits for the test substance copper sulfate ([…]) to the common water flea, Daphnia magna.
Using the invertebrate Daphnia magna as a test species a series of test concentratins are established with the standard reference toxicant copper sulfate, CuSo4, in triplicate at the following concentrations:
One ml of each of the above CuSO4 solutions was pippetted into a mutiwell plate (3 replications per concentration, 1 ml per replicate). To each of 18 wells in the plate 5 Daphnia magna were added and exposed to the test concentrations for a period of five minutes. Then to each of the 18 wells, with the exception of 0-B 1, 2 and 3, 1.0 mg of 4-Methylumbelliferyl b-D-Galactoside (MUF) was dropped onto the surface of each well. The powder settled to the bottom of each well. After 1 minute of exposure, each sample was read. An ultra-violet light (black light) was held over the multiwell in a dark room. The fluorescent intensity of Controls 0-A ppm (maximum intensity) and Controls 0-B ppm (minimum intensity) were utilized as baselines to compare the effects of test concentrations 0.01 through 10.0 ppm CuSO4.

[3] = Table 2, three tests at different times per toxicant, 1 hour exposure, 15 minutes after MUF

c1ccccc1 [Benzene]
EC50 (Daphnia magna [1]; 1 h): 6.5 µg/mL (≈ 83.2 µM)

[Cd] [Cd, cadmium]
Mean EC50 (Daphnia magna [1]; [3]): 0.41 ppm

[Cr] [Cr, chromium]
Mean EC50 (Daphnia magna [1]; [3]): 3.7 ppm

[Cu] [Cu, copper]
EC50 for Cu with Daphnia magna (Daphnia magna [1]; test tubes, 1 hour exposure, 15 minutes after MUF): 0.23 ppm

C=O [Formaldehyde]
EC50 (Daphnia magna [1]; 1 h): 39.2 µg/mL (≈ 1310 µM)

CCCCCCCCCCCCOS(=O)(=O)O [NaLS]
EC50 (Daphnia magna [1]; [3]): 74.1 µg/mL (≈ 278 µM)

Oc1c(Cl)c(Cl)c(Cl)c(Cl)c1Cl [NaPCP]
EC50 (Daphnia magna [1]; [3]): 1 µg/mL (≈ 3.75 µM)

Oc1ccccc1 [Phenol]
EC50 (Daphnia magna [1]; 1 h): 37.1 µg/mL (≈ 394 µM)

Cc1ccccc1 [Toluene]
EC50 (Daphnia magna [1]; 1 h): 6.3 µg/mL (≈ 68.4 µM)

[Zn] [Zn, zinc]
Mean EC50 (Daphnia magna [1]; [3]): 4.3 ppm

copper sulfate [CuSO4]
fluorescence of Daphnia magna (Daphnia magna [2]; 0.01 ppm): f | survival (all alive) (Daphnia magna [2]; 0.01 ppm): all alive | fluorescence of Daphnia magna (Daphnia magna [2]; 0.1 ppm): f | survival (all alive) (Daphnia magna [2]; 0.1 ppm): all alive | fluorescence of Daphnia magna (Daphnia magna [2]; 1.0 ppm): f | survival (all alive) (Daphnia magna [2]; 1.0 ppm): all alive | sublethal adverse affect detected (Daphnia magna [2]; 10.0 ppm, in less than 10 minutes): sublethal adverse affect | fluorescence of Daphnia magna (Daphnia magna [2]; 10.0 ppm): nf | survival (all alive) (Daphnia magna [2]; 10.0 ppm): all alive | EC50 (Daphnia magna [2]; multiwell plate, 5 minutes exposure, MUF substrate, read after 1 minute): 3.2 ppm

mercury [Hg]
Mean EC50 (Daphnia magna [1]; [3]): 0.02 ppm
